Assay results from article PMC11054638, “Transport of Non-Steroidal Anti-Inflammatory Drugs across an Oral Mucosa Epithelium In Vitro Model” (Pharmaceutics, 2024).

Key:
[1] = in vitro; conditions: human
Method: (§1) As soon as cells reached confluency, cultivation was switched from submerged to airlift and 1% Human Keratinocytes Growth Supplements (HKGS, Gibco, Thermofisher, Vienna, Austria, S0015) was added to the cultivation media on the basolateral compartment. Media were changed every 2–3 days until the day of experiment on day 29. Cells from passage 14–36 were used for experiments. Transepithelial electric resistance (TEER) was measured on day of experiment, as described in detail previously.
(§2) Solutions were diluted to 10 µM (carboxyfluorescein) or 100 µM in DMEM on day of experiments.
(§3) First, TEER was measured in cultivation media on the day of experiment. Afterwards, cells and blanks were washed twice with DMEM on the apical (300 µL) and basolateral (900 µL) compartments and selected cells and blanks were treated with DMEM with or without 100 µM probenecid or verapamil on the apical and basolateral side at 37 °C for 30 min. […] To cells which were pre-incubated with probenecid or verapamil, 100 µM probenecid or verapamil was applied apically as well. DMSO content was adapted for cells with no inhibitors, and DMSO and dd-H2O content was adjusted in the basolateral compartment as well in order to apply the same vehicle concentrations on the apical and basolateral compartment. […] Subsequently, duplicates of apical sample were collected, and samples were frozen at −80 °C until further analysis with High-Performance Liquid Chromatography (HPLC).
(§4) Peaks were quantified using the software Chromeleon Version 7.2.6, and corresponding mili absorbance unit × time [mAU × min] values were used for data analysis.
(§5) Mean values of relative fluorescence unit (RFU) or detected area [mAU × min] were used for calculation. For the first timepoint, the clearance [µL] for the detected area was calculated as shown in the formula below (1a), with Abasot1 as the measured area [mAU × min] at the first time point of the basolateral sample, Vbaso as the basolateral volume [µL] and Astock as the area measured for the applied stock solution. […] Clearance [µL] for carboxyfluorescein was calculated with the same formulas using RFU. (1a) Clearance=Abasot1×Vbaso/AStock (1b) Clearancetn=Abasotn×Vbaso/AStock−∑(Abasotn−1 ×3− Abasot1 ×3)
(§6) Cleared volume [µL] was calculated by plotting the sum of clearance at all time points over time [min]. The resulting slope PS [µL/min] was calculated inversely. For calculation of the PScell, the inverse PS blanks were subtracted, as shown below in Formula (2). (2) 1/PScell=1/PSall−1/PSblank
(§7) The final permeability coefficient is calculated by dividing the inverse PScell by the area of the ThinCerts (0.336 cm^2) and multiplying by a conversion factor to give the permeability coefficient as µm/min.

[2] = system: oral mucosa epithelium in vitro model based on human cell line TR146; experiment: Transport study across oral mucosa Transwell model, apical to basolateral, 240 min; conditions: for permeability coefficient: mean ± SEM
Method: as §1, §2, §3, §4, §5, §6, §7

[3] = Ibuprofen study, Probenecid, mean ± SD
[4] = Ibuprofen study, Verapamil, mean ± SD
[5] = Ibuprofen study, w/o Inhibitor, mean ± SD

CC(C)Cc1ccc(C(C)C(=O)O)cc1 (centres unmarked) [ibuprofen]
Papp A→B at 240 min ([1]; PC (permeability of cell)): 13.1 ×10⁻⁶ cm/s
Papp A→B at 240 min ([1]; PE (permeability of cell + blank)): 5.45 ×10⁻⁶ cm/s
PS all (cell + blank) [2, 3]: 0.12 ± 0.03 µL/min
PS cell [2, 3]: 0.26 ± 0.11 µL/min
PS all (cell + blank) [2, 4]: 0.11 ± 0.01 µL/min
PS cell [2, 4]: 0.24 ± 0.04 µL/min
PE (permeability of cell + blank) [2, 5]: 2.94 ± 0.3 µm/min
PS all (cell + blank) [2, 5]: 0.1 ± 0.01 µL/min
PS cell [2, 5]: 0.19 ± 0.05 µL/min
Permeability coefficient without inflammation and inhibitor ([2]; Table S3, mean ± SD): 5.77 ± 1.48 µm/min
PE (permeability of cell + blank) ([2]; human, 240 min): 3.47 ± 0.76 µm/min
increase of permeability coefficient with probenecid compared to no inhibitor ([2]; human, 240 min, 100 µM): 1.36 fold
increase of permeability coefficient with verapamil compared to no inhibitor ([2]; human, 240 min, 100 µM): 1.23 fold
cumulated concentration of NSAID in the basolateral compartment ([2]; human, 4 h, 100 µM): 0.067 ± 0.0078 nmol/mm^2
permeability coefficient ([2]; with 100 µM probenecid): 7.87 ± 1.32 µm/min
permeability coefficient ([2]; with 100 µM verapamil): 7.13 ± 0.51 µm/min
permeability coefficient ([2]; without inhibitor, 100 µM apical (CF 10 µM)): 5.77 ± 0.60 µm/min
